Results reported in patent US5750567A, “Farnesyl transferase inhibitors, preparation thereof and pharmaceutical compositions containing same” (Phone-Poulenc Rorer SA., priority 1995, dated 1998).
Structures can show the parent of a compound that is named as a salt.

What was measured:
[1] = target: T1, human farnesyl transferase (Homo sapiens, UniProt P49354+P49356); experiment: inhibition of farnesyl transferase (transfer of [3H]farnesyl from [3H]FPP to p21 H-Ras); type: biochemical; settings: p21 H-Ras substrate, 20 minutes at 37° C.; 9 concentrations; read-out: Inhibitory activity IC50
T1 construct: human farnesyl transferase purified from THP1 cell cultures; endogenous in cells; host or cells: THP1 cells (enzyme purified from the cultures)
Protocol: Farnesyl transferase activity is determined by the quantity of [^3 H]farnesyl transferred from [^3 H]farnesyl pyrophosphate [[^3 H]FPP) to the p21 H-Ras protein. The standard reaction mixture is composed, for a final volume of 60 μl, of 50 mM Tris-HCl, 5 mM MgCl2, 5 mM dithiotreitol, 0.2% octyl β-D-glucopyranoside, 200 picomol p21 H-ras, 4.5 picomol [^3 H]FPP (activity 61000 dpm/picomol).
Reaction is initiated by adding approximately 5 ng of human farnesyl transferase purified from THP1 cell cultures. After incubation for 20 minutes at 37° C. in a microtitration plate containing 96 1-cm^3 wells per plate (Titer Plate®, Beckman), the reaction is stopped by adding 0.4 cm^3 of 0.1% SDS in methanol at 0° C. The mixture is then treated with 0.4 cm^3 of 30% trichloroacetic acid (TCA) in methanol. The plates are left in ice for 1 hour. […] The membranes are dried in a microwave oven, then impregnated with scintillation medium by melting of Meltilex® (Pharmacia) under hot air, and lastly counted in cpm in a β-Plate counter® (LKB). […]
The percentage inhibition values are obtained by comparison of the tests with and without inhibitor after deduction of blanks, the IC50 values being measured on the basis of the inhibitions obtained with 9 different concentrations using Enzfitter® or Grafit® software.

[2] = tested on: farnesylation of the Ras protein in THAC line (CCL 39 cells transfected with activated Ha-Ras); experiment: activity against cells: inhibition of farnesylation of the Ras protein in THAC cells (Western blot); type: cell-based; settings: CCL39, 24 hours at 37° C.
Protocol: The activity against cells can be determined in the following way:
The cell line is the THAC line (CCL 39 cells transfected with activated Ha-Ras) according to K. Seuwen et al., EMBO J., 7(1) 161-168 (1988). The cells are cultured in Petri dishes with a diameter of 6 cm containing a DMEM medium, 5% foetal calf serum and 1% G418.
After culturing for 24 hours, the culture medium is changed (with or without the serum).and the product to be studied is added in solution in dimethylformamide (DMF), in the presence or in the absence of DTT (final concentrations of 0.5% in DMF and 0.1 mM in DTT). After culturing for 24 hours at 37° C., the cells are lysed in 1 cm^3 of lysis buffer (20 mM Tris, HCl, 1% Triton X114, 5 mM MgCl2, 7 mM DTT, 150 mM NaCl, pH=7.4). The lysates are clarified by centrifuging at 4000 revolutions/minute for 10 minutes. […] The radioactivity of the bands corresponding to farnesylated Ras and to non-farnesylated Ras makes it possible to determine the percentage of inhibition of farnesylation of the Ras protein.

COC(=O)[C@H](CCSC)NC(=O)C1CCCc2c(NC[C@@H](N)CS)cccc21 (stereo partly drawn) [Example 1, trifluoroacetate of the methyl ester of N-[5-(2(R)-amino-3-mercapto-propylamino)-1,2,3,4-tetrahydronaphthyl-1(R,S)-carbonyl]-(L)-methionine]
IC50 [1]: 0.015 µM | inhibition at 10 µM ([2]; 10 μM): > 10%

CSCC[C@H](NC(=O)C1CCCc2c(NC[C@@H](N)CS)cccc21)C(=O)O (stereo partly drawn) [Example 2, trifluoroacetate of N-[5-(2(R)-amino-3-mercaptopropylamino)-1,2,3,4-tetrahydronaphthyl-1(R,S)-carbonyl]-(L)-methionine]
IC50 [1]: 0.405 µM | inhibition at 50 µM ([2]; 50 μM): 50%
